± gives the expanded uncertainty stated by the source.
Conditions: Crystal; DTA

| Structure (SMILES) | Normal melting temperature [°C] |
| --- | --- |
| CN1c2ccccc2C(=O)N2CCc3c([nH]c4ccccc34)[C@H]21 [evodiamine] | 275.1 ± 0.4 |
| O=c1c2ccccc2nc2n1CCc1c-2[nH]c2ccccc12 [Rutecarpine] | 259.1 ± 0.4 |

Source: the NIST ThermoML archive (doi:10.1016/j.jct.2014.12.004)
